# In patent US9510589B2, “Use and agrochemical composition of carboxylic acid dibutylamides” (priority 2011, dated 2016):
# Legend:
# [1] = system: enzymatically isolated cuticles of apple tree leaves; assay: Penetration test, epoxiconazole (Example 11); format: in vitro ADME, apple trees of the Golden Delicious variety; details: without N,N-dibutylcarboxamide, 0.3 g/l epoxiconazole in acetone/water, 20° C., 60% relative air humidity
# Procedure: (§1) In this test, the penetration of active ingredients though enzymatically isolated cuticles of apple tree leaves was measured. Leaves which had been cut off in the fully developed state from apple trees of the Golden Delicious variety were used.
# (§2) Thereafter, only the cuticles of the upper leaf sides which were free of stomata and hairs were used in the further procedure. They were repeatedly washed alternately with water and a buffer solution of pH 7. The clean cuticles obtained were finally applied to Teflon sheets and smoothed and dried with a gentle air stream.
# (§3) In the next step, the cuticular membranes thus obtained were placed into stainless steel diffusion cells (=transport chambers) for membrane transport studies. For this purpose, the cuticles were positioned using tweezers centrally onto the edges of the diffusion cells which had been smeared with silicone grease and sealed with a ring which had likewise been greased. The arrangement was selected such that the morphological outer side of the cuticles was directed outward, i.e. toward the air, while the original inner side faced the interior of the diffusion cell. […]
# (§4) To determine the penetration, 10 μl in each case of a spray liquor of the composition specified in the examples were applied to the outer side of a cuticle. […] The active ingredient penetration was measured by means of HPLC or radiolabeled active ingredient.
# [2] = system: enzymatically isolated cuticles of apple tree leaves; assay: Penetration test, azoxystrobin (Example 10); format: in vitro ADME, apple trees of the Golden Delicious variety; details: without N,N-dibutylcarboxamide, 0.3 g/l azoxystrobin in acetone/water, 20° C., 60% relative air humidity
# Procedure: as §1, §2, §3, §4
# [3] = system: enzymatically isolated cuticles of apple tree leaves; assay: Penetration test, bromoxynil, dimethyl vs dibutyl amides (Example 6); format: in vitro ADME, apple trees of the Golden Delicious variety; details: no N,N-dialkylcarboxamide, 0.5 g/l castor oil ethoxylate emulsifier only, 1.5 g/l bromoxynil in acetone/water, 20° C., 60% relative air humidity
# Procedure: as §1, §2, §3, §4
# [4] = system: isolated apple leaf cuticles; assay: Penetration test, fluopyram EC (Example 21); format: in vitro ADME, apple trees of the Golden Delicious variety; details: no carboxamide, 0.5 g/l fluopyram, 0.5 g/l emulsifier, 2% by weight solvent, 25° C., 60% relative air humidity
# Procedure: The active ingredient fluopyram was made up as an EC formulation in the laboratory: fluopyram is dissolved in a preliminary mixture of solvent and emulsifier (dimethylacetamide+Tanemul PS16) and diluted with water to give the ready-to-use test solution. The test solution contains 0.5 g/l active ingredient, 0.5 g/l emulsifier and 2% by weight of solvent.
# [5] = system: enzymatically isolated cuticles of apple tree leaves; assay: Penetration test, isopyrazam (Example 13); format: in vitro ADME, apple trees of the Golden Delicious variety; details: without N,N-dibutylcarboxamide, 0.3 g/l isopyrazam in acetone/water, 20° C., 60% relative air humidity
# Procedure: as §1, §2, §3, §4
# [6] = system: enzymatically isolated cuticles of apple tree leaves; assay: Penetration test, kresoxim-methyl (Example 9); details: without N,N-dibutylcarboxamide, 0.3 g/l kresoxim-methyl in acetone/water, 20° C., 60% relative air humidity
# Procedure: as §1, §2, §3, §4
# [7] = system: enzymatically isolated cuticles of apple tree leaves; assay: Penetration test, propiconazole (Example 12); format: in vitro ADME, apple trees of the Golden Delicious variety; details: without N,N-dibutylcarboxamide, 0.3 g/l propiconazole in acetone/water, 20° C., 60% relative air humidity
# Procedure: as §1, §2, §3, §4
# [8] = system: enzymatically isolated cuticles of apple tree leaves; assay: Penetration test, prothioconazole with dimethyl amide plus dibutyl amides (Example 17); format: in vitro ADME, apple trees of the Golden Delicious variety; details: no N,N-dibutylcarboxamide, 0.8 g/l prothioconazole in acetone/water with 1.5 g/l N,N-dimethyl-C8-C10-carboxamide and 0.4 g/l tristyrylphenol ethoxylate, n = 21, 20° C., 60% relative air humidity
# Procedure: as §1, §2, §3, §4
# [9] = system: enzymatically isolated cuticles of apple tree leaves; assay: Penetration test, prothioconazole in acetone/water (Example 15); format: in vitro ADME, apple trees of the Golden Delicious variety; details: without N,N-dibutylcarboxamide, 0.3 g/l prothioconazole in acetone/water, 25° C., 60% relative air humidity
# Procedure: as §1, §2, §3, §4
# [10] = system: enzymatically isolated cuticles of apple tree leaves; assay: Penetration test, spirotetramat in acetone/water (Example 7); format: in vitro ADME, apple trees of the Golden Delicious variety; details: without N,N-dibutylcarboxamide, 0.3 g/l spirotetramat in acetone/water, 20° C., 60% relative air humidity
# Procedure: as §1, §2, §3, §4
compound,measurement,setting,value
Fc1ccc([C@]2(Cn3cncn3)O[C@H]2c2ccccc2Cl)cc1 (racemic) [epoxiconazole],Mean penetration of epoxiconazole in % 3 h,[1]; 3 h,1%
same,Mean penetration of epoxiconazole in % 24 h,[1]; 24 h,2%
CO/C=C(/C(=O)OC)c1ccccc1Oc1cc(Oc2ccccc2C#N)ncn1 [azoxystrobin],Mean penetration of azoxystrobin in % 3 h,[2]; 3 h,<1%
same,Mean penetration of azoxystrobin in % 24 h,[2]; 24 h,1%
N#Cc1cc(Br)c(O)c(Br)c1 [bromoxynil],Mean penetration of bromoxynil in % 5 h,[3]; 5 h,4%
same,Mean penetration of bromoxynil in % 24 h,[3]; 24 h,20%
O=C(NCCc1ncc(C(F)(F)F)cc1Cl)c1ccccc1C(F)(F)F [fluopyram],Mean penetration of fluopyram in % 6 h,[4]; 6 h,20%
same,Mean penetration of fluopyram in % 24 h,[4]; 24 h,53%
CC(C)C1C2CCC1c1c(NC(=O)c3cn(C)nc3C(F)F)cccc12 (centres unmarked) [isopyrazam],Mean penetration of isopyrazam in % 3 h,[5]; 3 h,1%
same,Mean penetration of isopyrazam in % 24 h,[5]; 24 h,2%
CO/N=C(/C(=O)OC)c1ccccc1COc1ccccc1C [kresoxim-methyl],Mean penetration of kresoxim-methyl in % 3 h,[6]; 3 h,1%
same,Mean penetration of kresoxim-methyl in % 24 h,[6]; 24 h,3%
CCCC1COC(Cn2cncn2)(c2ccc(Cl)cc2Cl)O1 (centres unmarked) [propiconazole],Mean penetration of propiconazole in % 3 h,[7]; 3 h,4%
same,Mean penetration of propiconazole in % 24 h,[7]; 24 h,44%
OC(Cc1ccccc1Cl)(Cn1nc[nH]c1=S)C1(Cl)CC1 (centres unmarked) [prothioconazole],Mean penetration of prothioconazole in % 3 h,[8]; 3 h,1.3 (n = 21) %
same,Mean penetration of prothioconazole in % 24 h,[8]; 24 h,3.7 (n = 21) %
same,Mean penetration of prothioconazole in % 3 h,[9]; 3 h,1%
same,Mean penetration of prothioconazole in % 24 h,[9]; 24 h,2%
CCOC(=O)OC1=C(c2cc(C)ccc2C)C(=O)N[C@]12CC[C@@H](OC)CC2 [spirotetramat],Mean penetration of spirotetramat in % 3 h,[10]; 3 h,0%
same,Mean penetration of spirotetramat in % 24 h,[10]; 24 h,1%
